The values that follow come from patent US12486302B2, “Somatostatin receptor antagonist compounds and methods of using the same” (CDRD VENTURES INC., priority 2016, dated 2025).

Experiment [1] has as its target somatostatin type 2 (SSTR2) receptors (Homo sapiens, UniProt P30874). Briefly: PathHunter β-Arrestin assay, antagonist mode, SSTR2. It is filed as cell-based. Conditions: agonist challenge at EC80. In a few lines:
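Cells co-expressing PK-tagged human receptor and EA-β-Arrestin were pre-incubated with compound, then challenged with agonist at EC80. β-Gal complementation read by chemiluminescence; % inhibition normalized to EC80 and vehicle controls at 10 concentrations (log 3 steps from 1 μM down to 5e-5 μM), fitted for IC50.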

For experiment [2], the target named is SSTR3 (Homo sapiens, UniProt P32745). As to the kind of experiment: PathHunter β-Arrestin assay, antagonist mode, SSTR3. The settings on record: agonist challenge at EC80. The experiment is classed as cell-based. How it is done:
The PathHunter® β-Arrestin assay monitors the activation of a GPCR in a homogenous, non-imaging assay format using a technology developed by DiscoveRx called Enzyme Fragment Complementation (EFC) with β-galactosidase (β-Gal) as the functional reporter. […] EA is fused to β-Arrestin and […] is fused to the GPCR of interest. When the GPCR is activated and β-Arrestin is recruited to the receptor, ED and EA complementation occurs, restoring β-Gal activity which is measured using chemiluminescent PathHunter® Detection Reagents. For antagonist determination, cells were pre-incubated with the compounds followed by agonist challenge at the EC80 concentration. Data was normalized to the maximal and minimal response observed in the presence of EC80 ligand and vehicle. Compound activity was analyzed using CBIS data analysis suite ChemInnovation, CA). Percentage inhibition was calculated using the following formula: % Inhibition=100%×(1−(mean signal of test sample-mean signal of vehicle control)/(mean signal of EC80 control-mean signal of vehicle control)). Percentage inhibition was calculated at 10 concentrations in steps on a Log 3 scale ranging from […] to 5e-5 μM. The results were plotted for IC50 calculation.

*1 amine or outer side, *2 acyl side, *3 side chain or, on linkers, in order; H or OH if unused. Where a SMILES comes first, the peptide text is derived from it. Bridges are numbered along the chain shown (N, C = ends). Side-chain parts run from the residue outwards. [ ]: non-standard residue; d: D form. The star is where a group is joined. ξ: configuration not given here. X3 = O=C([C@@H](Cc1ccc(NCCN2CCOCC2)cc1)N[*:1])[*:2]; dPhe(4-CONH2) = NC(=O)c1ccc(C[C@@H](N)C(=O)O)cc1; dPhe(4-CH2NH2) = NCc1ccc(C[C@@H](N)C(=O)O)cc1; dPhe(4-NH2) = Nc1ccc(C[C@@H](N)C(=O)O)cc1; Phe(4-Cl) = N[C@@H](Cc1ccc(Cl)cc1)C(=O)O; d(hCit) = NC(=O)NCCCC[C@@H](N)C(=O)O; ξPhe(4-Cl) = NC(Cc1ccc(Cl)cc1)C(=O)O; Ethyl(2-morpholino) = C1CN(CC*)CCO1; NMeT = CN[C@H](C(=O)O)[C@@H](C)O; ξF = NC(Cc1ccccc1)C(=O)O

Chain of somatostatin type 2 (SSTR2) receptors (P30874 whole entry): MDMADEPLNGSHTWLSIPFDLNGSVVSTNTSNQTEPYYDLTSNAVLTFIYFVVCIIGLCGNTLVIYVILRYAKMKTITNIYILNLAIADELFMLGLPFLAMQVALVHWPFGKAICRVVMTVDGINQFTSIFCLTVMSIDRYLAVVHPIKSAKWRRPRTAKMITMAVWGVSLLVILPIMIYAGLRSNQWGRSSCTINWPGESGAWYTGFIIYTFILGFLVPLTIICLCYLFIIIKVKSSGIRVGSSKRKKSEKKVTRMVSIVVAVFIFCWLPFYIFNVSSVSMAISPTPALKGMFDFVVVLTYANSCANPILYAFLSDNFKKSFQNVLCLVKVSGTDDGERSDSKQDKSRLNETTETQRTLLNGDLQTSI
Chain of SSTR3 (P32745 whole entry, the tested form may be a part): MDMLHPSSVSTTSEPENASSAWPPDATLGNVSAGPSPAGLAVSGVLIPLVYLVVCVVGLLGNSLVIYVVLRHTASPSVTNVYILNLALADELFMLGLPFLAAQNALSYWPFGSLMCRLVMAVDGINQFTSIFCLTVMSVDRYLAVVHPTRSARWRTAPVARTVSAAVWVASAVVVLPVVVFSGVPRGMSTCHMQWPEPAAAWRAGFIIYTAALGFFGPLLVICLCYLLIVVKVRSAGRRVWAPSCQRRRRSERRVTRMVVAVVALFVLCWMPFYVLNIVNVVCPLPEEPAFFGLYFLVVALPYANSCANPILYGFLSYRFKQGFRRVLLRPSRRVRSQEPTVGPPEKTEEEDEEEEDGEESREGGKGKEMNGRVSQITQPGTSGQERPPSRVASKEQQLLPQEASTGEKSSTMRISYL

On to `C[C@@H](O)[C@@H]1NC(=O)[C@H](CCCCN)NC(=O)[C@@H](Cc2ccc(NC(=O)[C@@H](N)CCC(=O)O)cc2)NC(=O)[C@H](Cc2ccc(O)cc2)NC(=O)[C@H](NC(=O)[C@@H](N)Cc2ccc(Cl)cc2)CSSC[C@@H](C(=O)N[C@H](Cc2ccc(O)cc2)C(N)=O)NC1=O` [Compound 20, H-Cpa-cyclo[DCys- Tyr-D-4-(Glu)Aph- Lys-Thr-Cys]- DTyr-NH2] (H-[Phe(4-Cl)][dC]Y[dPhe(4-NH2)](Glu)KTC[dY]-NH2; disulfide 2-7), for which the IC50 in experiment [1] is 924 nM; in experiment [2], greater than 1000 nM.

With `C[C@@H](O)[C@@H]1NC(=O)[C@H](CCCCN)NC(=O)[C@@H](Cc2ccc(NC(=O)[C@@H](N)CCCCN)cc2)NC(=O)[C@H](Cc2ccc(O)cc2)NC(=O)[C@H](NC(=O)[C@@H](N)Cc2ccc(Cl)cc2)CSSC[C@@H](C(=O)N[C@H](Cc2ccc(O)cc2)C(N)=O)NC1=O` [Compound 17, H-Cpa-cyclo[DCys- Tyr-D-4-(Lys) Aph-Lys-Thr- Cys]-DTyr-NH2] (H-[Phe(4-Cl)][dC]Y[dPhe(4-NH2)](Lys)KTC[dY]-NH2; disulfide 2-7), the IC50 in experiment [1] and in experiment [2] was greater than 1000 nM throughout.

`C[C@@H](O)[C@@H]1NC(=O)[C@H](CCCCN)NC(=O)[C@@H](Cc2ccc(CN)cc2)NC(=O)[C@H](Cc2ccc(O)cc2)NC(=O)[C@H](NC(=O)[C@@H](N)Cc2ccc(Cl)cc2)CSSC[C@@H](C(=O)N[C@H](Cc2ccc(O)cc2)C(N)=O)NC1=O` [Compound 5, H-Cpa-cyclo[DCys- Tyr-D-(4-aminomethyl)Phe- Lys-Thr-Cys]- DTyr-NH2] (H-[Phe(4-Cl)][dC]Y[dPhe(4-CH2NH2)]KTC[dY]-NH2; disulfide 2-7): the values for the IC50 in experiment [1] and in experiment [2] were 213 nM and greater than 1000 nM, respectively.

Regarding `C[C@@H](O)[C@@H]1NC(=O)[C@H](CCCCN)NC(=O)[C@@H](Cc2ccc(NC(=O)[C@@H](N)CO)cc2)NC(=O)[C@H](Cc2ccc(O)cc2)NC(=O)[C@H](NC(=O)[C@@H](N)Cc2ccc(Cl)cc2)CSSC[C@@H](C(=O)N[C@H](Cc2ccc(O)cc2)C(N)=O)NC1=O` [Compound 16, H-Cpa-cyclo[DCys- Tyr-D-4-(Ser) Aph-Lys-Thr- Cys]-DTyr-NH2] (H-[Phe(4-Cl)][dC]Y[dPhe(4-NH2)](Ser)KTC[dY]-NH2; disulfide 2-7), the results for the IC50 in experiment [1] and in experiment [2] were 234 nM and greater than 1000 nM, respectively.

As for `CC(=O)NCc1ccc(C[C@H]2NC(=O)[C@H](Cc3ccc(O)cc3)NC(=O)[C@H](NC(=O)[C@@H](N)Cc3ccc(Cl)cc3)CSSC[C@@H](C(=O)N[C@H](Cc3ccc(O)cc3)C(N)=O)NC(=O)[C@H]([C@@H](C)O)NC(=O)[C@H](CCCCN)NC2=O)cc1` [Compound 6, H-Cpa-cyclo[DCys- Tyr-D-(4- acetamido- methyl)Phe- Lys-Thr-Cys]-DTyr- NH2] (H-[Phe(4-Cl)][dC]Y[dPhe(4-CH2NH2)](Ac)KTC[dY]-NH2; disulfide 2-7), the IC50 in experiment [1] was 166 nM; in experiment [2], greater than 1000 nM.

As for `C[C@@H](O)[C@@H]1NC(=O)[C@H](CCCCN)NC(=O)[C@@H](CCCCNC(N)=O)NC(=O)[C@H](Cc2ccc(O)cc2)NC(=O)[C@H](NC(=O)[C@@H](N)Cc2ccc(Cl)cc2)CSSC[C@@H](C(=O)N[C@H](Cc2ccc(O)cc2)C(N)=O)NC1=O` [Compound 2, H-Cpa-cyclo[DCys- Tyr-DHoCit-Lys- Thr-Cys]- DTyr-NH2] (H-[Phe(4-Cl)][dC]Y[d(hCit)]KTC[dY]-NH2; disulfide 2-7), the IC50 in experiment [1] is 181 nM; in experiment [2] it was greater than 1000 nM.

For the compound `C[C@@H](O)[C@@H]1NC(=O)[C@H](CCCCN)NC(=O)[C@@H](Cc2ccc(NC(=O)[C@@H](N)CCC(N)=O)cc2)NC(=O)[C@H](Cc2ccc(O)cc2)NC(=O)[C@H](NC(=O)[C@@H](N)Cc2ccc(Cl)cc2)CSSC[C@@H](C(=O)N[C@H](Cc2ccc(O)cc2)C(N)=O)NC1=O` [Compound 21, H-Cpa-cyclo[DCys- Tyr-D-4-(Gln)Aph- Lys-Thr-Cys]- DTyr-NH2] (H-[Phe(4-Cl)][dC]Y[dPhe(4-NH2)](Gln)KTC[dY]-NH2; disulfide 2-7), the IC50 in experiment [1] and in experiment [2] was greater than 1000 nM each time.

Take `C[C@@H](O)[C@@H]1NC(=O)[C@H](CCCCN)NC(=O)[C@@H](Cc2ccc(NC(=O)[C@@H](N)CC(N)=O)cc2)NC(=O)[C@H](Cc2ccc(O)cc2)NC(=O)[C@H](NC(=O)[C@@H](N)Cc2ccc(Cl)cc2)CSSC[C@@H](C(=O)N[C@H](Cc2ccc(O)cc2)C(N)=O)NC1=O` [Compound 19, H-Cpa-cyclo[DCys- Tyr-D-4-(Asn) Aph-Lys-Thr- Cys]-DTyr-NH2] (H-[Phe(4-Cl)][dC]Y[dPhe(4-NH2)](Asn)KTC[dY]-NH2; disulfide 2-7): the IC50 in experiment [1] and in experiment [2] was greater than 1000 nM throughout.

Regarding `C[C@@H](O)[C@@H]1NC(=O)[C@H](CCCCN)NC(=O)[C@@H](Cc2ccc(NC(=O)[C@@H]3CCCN3)cc2)NC(=O)[C@H](Cc2ccc(O)cc2)NC(=O)[C@H](NC(=O)[C@@H](N)Cc2ccc(Cl)cc2)CSSC[C@@H](C(=O)N[C@H](Cc2ccc(O)cc2)C(N)=O)NC1=O` [Compound 10, H-Cpa-cyclo[DCys- Tyr-D-4-(Pro) Aph-Lys- Thr-Cys]- DTyr-NH2] (H-[Phe(4-Cl)][dC]Y[dPhe(4-NH2)](Pro)KTC[dY]-NH2; disulfide 2-7), the IC50 in experiment [1] and in experiment [2] was greater than 1000 nM each time.

For the compound `CC(C)[C@H](N)C(=O)Nc1ccc(C[C@H]2NC(=O)[C@H](Cc3ccc(O)cc3)NC(=O)[C@H](NC(=O)[C@@H](N)Cc3ccc(Cl)cc3)CSSC[C@@H](C(=O)N[C@H](Cc3ccc(O)cc3)C(N)=O)NC(=O)[C@H]([C@@H](C)O)NC(=O)[C@H](CCCCN)NC2=O)cc1` [Compound 23, H-Cpa-cyclo[DCys- Tyr-D-4-(Val)Aph- Lys-Thr-Cys]- DTyr-NH2] (H-[Phe(4-Cl)][dC]Y[dPhe(4-NH2)](Val)KTC[dY]-NH2; disulfide 2-7), the values for the half-inhibitory concentration (IC50) in experiment [1] and in experiment [2] were 458 nM and greater than 1000 nM, respectively.

With `C[C@@H](O)[C@@H]1NC(=O)[C@H](CCCCN)NC(=O)[C@@H](Cc2ccc(NCCN3CCOCC3)cc2)NC(=O)[C@H](Cc2ccc(O)cc2)NC(=O)[C@H](NC(=O)[C@@H](N)Cc2ccc(Cl)cc2)CSSC[C@@H](C(=O)N[C@H](Cc2ccc(O)cc2)C(N)=O)NC1=O` [Compound 11, H-Cpa-cyclo [DCys-Tyr- D-4-(2-(4- morpholinyl) ethyl)Aph- Lys-Thr-Cys]- DTyr-NH2] (H-[Phe(4-Cl)][dC]Y[X3]KTC[dY]-NH2; disulfide 2-7), the results for the IC50 in experiment [1] and in experiment [2] were 243 nM and greater than 1000 nM, respectively.

Consider `C[C@@H](O)[C@@H]1NC(=O)[C@H](CCCCN)NC(=O)[C@@H](Cc2ccc(OCCN3CCOCC3)cc2)NC(=O)[C@H](Cc2ccc(O)cc2)NC(=O)[C@H](NC(=O)[C@@H](N)Cc2ccc(Cl)cc2)CSSC[C@@H](C(=O)N[C@H](Cc2ccc(O)cc2)C(N)=O)NC1=O` [Compound 13, H-Cpa-cyclo[DCys- Tyr-D-(2-(4- morpholinyl)ethyl) Tyr-Lys-Thr- Cys]-DTyr-NH2] (H-[Phe(4-Cl)][dC]Y[dY](Ethyl(2-morpholino))KTC[dY]-NH2; disulfide 2-7), for which the IC50 was 334 nM in experiment [1] and greater than 1000 nM in experiment [2].

On to `CC(=O)NCC(=O)Nc1ccc(C[C@H]2NC(=O)[C@H](Cc3ccc(O)cc3)NC(=O)[C@H](NC(=O)[C@@H](N)Cc3ccc(Cl)cc3)CSSC[C@@H](C(=O)N[C@H](Cc3ccc(O)cc3)C(N)=O)NC(=O)[C@H]([C@@H](C)O)NC(=O)[C@H](CCCCN)NC2=O)cc1` [Compound 9, H-Cpa-cyclo[DCys- Tyr-D-4-(Gly- Ac)Aph- Lys-Thr-Cys]- DTyr-NH2] (H-[Phe(4-Cl)][dC]Y[dPhe(4-NH2)]([Gly-Ac])KTC[dY]-NH2; disulfide 2-7), for which the values for the 50% inhibitory concentration (IC50) in experiment [1] and in experiment [2] were 104 nM and greater than 1000 nM, respectively.

Compound `C[C@@H](O)[C@@H]1NC(=O)[C@H](CCCCN)NC(=O)[C@@H](Cc2ccc(C(N)=O)cc2)NC(=O)[C@H](Cc2ccc(Cl)cc2)NC(=O)[C@H](NC(=O)[C@@H](N)Cc2ccc(Cl)cc2)CSSC[C@@H](C(=O)NC(Cc2ccc(Cl)cc2)C(N)=O)NC1=O` (stereo partly drawn) [Compound 43, H-Cpa-cyclo[DCys- 4-Cl-Phe-D-(4- carbamoyl)Phe-Lys- Thr-Cys]-4-Cl-D- Phe-NH2] (H-[Phe(4-Cl)][dC][Phe(4-Cl)][dPhe(4-CONH2)]KTC[ξPhe(4-Cl)]-NH2; disulfide 2-7) had an IC50 in experiment [1] of 25.6 nM.

In turn, `C[C@@H](O)[C@H]1C(=O)N[C@H](C(=O)N[C@H](Cc2ccc(O)cc2)C(N)=O)CSSC[C@@H](NC(=O)[C@@H](N)Cc2ccc(Cl)cc2)C(=O)N[C@@H](Cc2ccc(O)cc2)C(=O)N[C@H](Cc2ccc(C(N)=O)cc2)C(=O)N[C@@H](CCCCN)C(=O)N1C` [Compound 73, H-Cpa-[DCys-Tyr- DPhe(4-carbamoyl)- Lys-NMeThr- Cys]-DTyr-NH2] (H-[Phe(4-Cl)][dC]Y[dPhe(4-CONH2)]K[NMeT]C[dY]-NH2; disulfide 2-7) came in with an IC50 in experiment [1] of 547 nM. Against the preceding compound, the IC50 is about 21-fold higher.

For the compound `C[C@@H](O)[C@@H]1NC(=O)[C@H](CCCCN)NC(=O)[C@@H](Cc2ccc(C(N)=O)cc2)NC(=O)[C@H](Cc2ccccc2)NC(=O)[C@H](NC(=O)[C@@H](N)Cc2ccc(Cl)cc2)CSSC[C@@H](C(=O)NC(Cc2ccccc2)C(N)=O)NC1=O` (stereo partly drawn) [Compound 41, H-Cpa-cyclo[DCys- Phe-D-(4- carbamoyl)Phe-Lys- Thr-Cys]-DPhe-NH2] (H-[Phe(4-Cl)][dC]F[dPhe(4-CONH2)]KTC[ξF]-NH2; disulfide 2-7), in experiment [1], the IC50 amounted to 24.4 nM.
